Test results reported in publication doi:10.1101/2025.10.06.680748v1 (bioRxiv, 2025).

target: T1, Fibroblast Activation Protein Alpha (FAP) (Homo sapiens, UniProt Q12884); assay: FAP substrate kinetics assay with naïve substrate library; assay type: biochemical; details: from the observed C-terminal product
T1 sequence (Q12884 27-760 limits assumed): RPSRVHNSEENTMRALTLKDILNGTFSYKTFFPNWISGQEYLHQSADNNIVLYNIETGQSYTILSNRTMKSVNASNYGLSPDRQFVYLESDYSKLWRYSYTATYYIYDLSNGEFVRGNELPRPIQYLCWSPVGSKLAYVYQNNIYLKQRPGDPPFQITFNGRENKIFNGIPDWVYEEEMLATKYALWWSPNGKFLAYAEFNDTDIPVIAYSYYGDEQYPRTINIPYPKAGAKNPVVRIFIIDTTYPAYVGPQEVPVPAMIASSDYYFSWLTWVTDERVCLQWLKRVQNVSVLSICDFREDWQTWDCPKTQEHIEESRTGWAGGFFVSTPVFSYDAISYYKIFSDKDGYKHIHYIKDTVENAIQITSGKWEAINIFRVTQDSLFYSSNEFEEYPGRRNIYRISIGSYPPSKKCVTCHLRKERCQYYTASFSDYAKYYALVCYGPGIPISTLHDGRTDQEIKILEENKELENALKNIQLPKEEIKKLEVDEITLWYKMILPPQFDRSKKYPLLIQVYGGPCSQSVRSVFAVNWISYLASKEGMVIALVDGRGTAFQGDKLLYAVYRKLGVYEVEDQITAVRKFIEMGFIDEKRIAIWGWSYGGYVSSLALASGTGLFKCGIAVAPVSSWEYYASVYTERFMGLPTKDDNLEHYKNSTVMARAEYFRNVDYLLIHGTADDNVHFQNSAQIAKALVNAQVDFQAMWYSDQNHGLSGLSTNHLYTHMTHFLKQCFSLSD

Row | Dipeptidyl? (substrate product pair cleaved by FAP as dipeptidyl exopeptidase) | Sequence
1 | Yes | GPGVLSEKHAGIEGR [SL11B_022414]
2 | Yes | GPIMPATVSGGIEGR [SL11B_020678]
3 | Yes | GSNNGQFNMVPLVPR [SL11C_037297]
4 | No | GSFHVPETHSWLVPR [SL11C_008744]
